How the values were obtained:
[1] = Recovery of extracted α-mangostin by precipitation on dilution; type: physicochemical
Source text: The extract thus obtained may also be diluted in a volume of water optionally supplemented with one or more adjuvants selected from salts, acids or bases, so as to be at a final concentration of non-ionic amphiphilic compound below the sufficient concentration defined above. Thus, it is possible to recover the lipophilic compounds by precipitation and solid-liquid separation such as filtration or centrifugation.
At 7% amyl xyloside, 100% of the α-mangostin extracted precipitates.

[2] = Solubilization curves (Sudan red, α-mangostin) to determine the minimum hydrotrope concentration; type: physicochemical; settings: deduced from solubilization curves in aqueous solution
Method: The term “minimum hydrotrope concentration” refers to the concentration above which these non-ionic amphiphilic compounds begin to form aggregates, i.e., new microenvironments with physical properties different from those observed when the compound is diluted, and different from micellar behavior. This minimum hydrotrope concentration is specific to each non-ionic amphiphilic compound and generally has the order of magnitude of the molarity. It can be determined by several physicochemical methods, such as by measuring surface tension, conductivity or dynamic and static light scattering (Self-association of nicotinamide in aqueous solution: Light-scattering and vapor pressure osmometry studies (1996) 85(8): 848-853), or quite simply by establishing a solubilization curve of a lipophilic compound (solubilized solute content as a function of concentration of non-ionic amphiphilic compound). Sudan red, a lipophilic dye easily measured by spectrophotometry, can be used as reference. […]
The solubilization curves of Sudan red in aqueous solutions of various non-ionic amphiphilic compounds at different concentrations were prepared. After saturation of the solutions with Sudan red and filtration, the Sudan red content solubilized in each solution is measured after dilution by UV spectrophotometry at 476 nm. […]

Compound	% of α-mangostin recovered by precipitation/α-mangostin extracted ([1]; extraction concentration 40%, concentration after dilution 7%) [%]	% of α-mangostin recovered by precipitation/α-mangostin extracted ([1]; extraction concentration 40%, concentration after dilution 7%, listed as amyl xyloside) [%]	% of α-mangostin recovered by precipitation/α-mangostin extracted ([1]; extraction concentration 40%, concentration after dilution 15%) [%]	% of α-mangostin recovered by precipitation/α-mangostin extracted ([1]; extraction concentration 40%, concentration after dilution 15%, listed as amyl xyloside)	MHC (minimum hydrotrope concentration) [2]	% of α-mangostin recovered by precipitation/α-mangostin extracted ([1]; extraction concentration 59%, concentration after dilution 24%) [%]
amyl xyloside	100	100	12	little α-mangostin precipitates	5-10%	
CC(C)(O)CCO [Isopentyldiol, 3-methyl-1,3-butanediol]						66

— patent US10299502B2, “Method for producing an extract of a matrix of vegetable origin with a non-ionic amphiphilic compound as extraction adjuvant in an aqueous medium” (PIERRE FABRE DERMO-COSMETIQUE, priority 2015, dated 2019)
